The text below walks through data of patent publication US20240109924A1, “IP4-4,6 SUBSTITUTED DERIVATIVE COMPOUNDS” (SANIFIT THERAPEUTICS, S.A., priority 2021, published 2024).

SMILES strings stand for the structures. Counter-ions that a name gives are not always drawn.

A short description of the assay: In vitro inhibition of calcium phosphate crystallization in human plasma (spectrophotometric assay). The class given is biochemical. The settings on record: 0-100 μM, 1.5 mM phosphate, 12.5 mM calcium, pH 7.4, absorbance 550 nm, slope 6-24 min, read-out: Relative Potency. Here is the method:
The in vitro efficacy of the IP4-4,6 substituted derivatives (e.g., Compounds 1 to 53) of the invention on the inhibition of calcium phosphate crystallization in human plasma samples was evaluated according to a spectrophotometric assay previously described in the art (Ferrer M, et al., Sci Rep 2017; 7:6858, doi:10.1038/s41598-017-07203-x).
A 96-well plate was employed. Plasma was spiked (1 volume of the IP4-4,6 substituted derivatives of the invention per 19 volumes of plasma) with increasing concentrations of the derivatives in the range of 0-100 μM. Plasma was then centrifuged at 10,000 g at rt and subsequently mixed with a mixture of 5 mM hydrogen phosphate and 41.67 mM calcium to attain final concentrations of 1.5 mM phosphate and 12.5 mM calcium, respectively. All reagent solutions were filtered, and pH adjusted to 7.4.
Crystallization of calcium phosphate was monitored spectrophotometrically for 30 min at rt by measuring the increments in absorbance at 550 nm using the Biotek Powerwave XS Microplate spectrophotometer (BioTek Instruments, Inc., Winooski, VT, US). The plate was incubated at rt in an orbital shaker and absorbance measured every 3 min.
Plasma crystallization was assessed based on slope measurement in the linear range between 6 and 24 min from plots of increase in absorbance versus logarithm of time. The efficacy of different myo-inositol phosphates derivatives in preventing in vitro formation of calcium phosphate crystals was assessed in human plasma samples using the slopes obtained between 6- and 24-min. Inhibition of crystallization was measured by comparing the slopes of the control sample (blank plasma) with those of samples containing the inhibitor as shown below: […]
Turning to `CCCNC(=O)NCCCCCOC1C(OP(=O)(O)O)C(OCCCCCNC(=O)NCCC)C(OP(=O)(O)O)C(OP(=O)(O)O)C1OP(=O)(O)O` (stereo not drawn) [Compound 30, 4,6-O-bis(5-(3-propylureido)pentyl)-myo-inositol-1,2,3,5-tetrakis(phosphate) octasodium salt], the EC50 was ≤ 5 µM.

Regarding `COCCCn1cc(CO[C@@H]2[C@@H](OP(=O)(O)O)[C@H](OCc3cn(CCCOC)nn3)[C@@H](OP(=O)(O)O)[C@@H](OP(=O)(O)O)[C@H]2OP(=O)(O)O)nn1` [Compound 32, 4,6-O-bis((1-(3-methoxypropyl)-1H-1,2,3-triazol-4-yl)methyl)-myo-inositol-1,2,3,5-tetrakis(phosphate) octasodium salt], the EC50 was ≤ 5 µM.

On to `COCCCCCCn1cc(COC2C(OP(=O)(O)O)C(OCc3cn(CCCCCCOC)nn3)C(OP(=O)(O)O)C(OP(=O)(O)O)C2OP(=O)(O)O)nn1` (stereo not drawn) [Compound 33, 4,6-O-bis((1-(6-methoxyhexyl)-1H-1,2,3-triazol-4-yl)methyl)-myo-inositol-1,2,3,5-tetrakis(phosphate) octasodium salt], for which the EC50 fell in the range of 5 to 10 µM.

Take `CC(=O)N1CCN(CCOC2C(OP(=O)(O)O)C(OCCN3CCN(C(C)=O)CC3)C(OP(=O)(O)O)C(OP(=O)(O)O)C2OP(=O)(O)O)CC1` (stereo not drawn) [Compound 34, 4,6-O-bis(2-(4-acetylpiperazin-1-yl)ethyl)-myo-inositol-1,2,3,5-tetrakis(phosphate) octasodium salt]: the EC50 lay within 5 to 10 µM.

For `O=C(O)CCc1cn(CCCOC2C(OP(=O)(O)O)C(OCCCn3cc(CCC(=O)O)nn3)C(OP(=O)(O)O)C(OP(=O)(O)O)C2OP(=O)(O)O)nn1` (stereo not drawn) [Compound 35, 4,6-O-bis(3-(4-(2-carboxyethyl)-1H-1,2,3-triazol-1-yl)propyl)-myo-inositol-1,2,3,5-tetrakis(phosphate) decasodium salt], the EC50 is ≤ 5 µM. The figure for `COCc1cn(CCCOC2C(OP(=O)(O)O)C(OCCCn3cc(COC)nn3)C(OP(=O)(O)O)C(OP(=O)(O)O)C2OP(=O)(O)O)nn1` (stereo not drawn) [Compound 36, 4,6-O-bis(3-(4-(methoxymethyl)-1H-1,2,3-triazol-1-yl)propyl)-myo-inositol-1,2,3,5-tetrakis(phosphate) octasodium salt] is 5 to 10 µM. For the molecule `COCc1cn(CCCCOC2C(OP(=O)(O)O)C(OCCCCn3cc(COC)nn3)C(OP(=O)(O)O)C(OP(=O)(O)O)C2OP(=O)(O)O)nn1` (stereo not drawn) [Compound 37, 4,6-O-bis(4-(4-(methoxymethyl)-1H-1,2,3-triazol-1-yl)butyl)-myo-inositol-1,2,3,5-tetrakis(phosphate) octasodium salt], the EC50 lay in the range of 5 to 10 µM. On to `COCc1cn(CCCCCOC2C(OP(=O)(O)O)C(OCCCCCn3cc(COC)nn3)C(OP(=O)(O)O)C(OP(=O)(O)O)C2OP(=O)(O)O)nn1` (stereo not drawn) [Compound 38, 4,6-O-bis(5-(4-(methoxymethyl)-1H-1,2,3-triazol-1-yl)pentyl)-myo-inositol-1,2,3,5-tetrakis(phosphate) octasodium salt], for which the EC50 is ≤ 5 µM. Next, `O=C(O)c1cn(CCCCCCOC2C(OP(=O)(O)O)C(OCCCCCCn3cc(C(=O)O)nn3)C(OP(=O)(O)O)C(OP(=O)(O)O)C2OP(=O)(O)O)nn1` (stereo not drawn) [Compound 40, 4,6-O-(6-(4-carboxy-1H-1,2,3-triazol-1-yl)hexyl)-myo-inositol-1,2,3,5-tetrakis(phosphate) decasodium salt]: ≤ 5 µM; `COCc1cn(CCCCCCOC2C(OP(=O)(O)O)C(OCCCCCCn3cc(C(=O)O)nn3)C(OP(=O)(O)O)C(OP(=O)(O)O)C2OP(=O)(O)O)nn1` (stereo not drawn) [Compound 41, 4-O-(6-(4-carboxy-1H-1,2,3-triazol-1-yl)hexyl)-6-O-(6-(4-(methoxymethyl)-1H-1,2,3-triazol-1-yl)hexyl)-myo-inositol-1,2,3,5-tetrakis(phosphate) nonasodium salt]: ≤ 5 µM; `COc1ccc(CCCOC2C(OP(=O)(O)O)C(OCCCc3ccc(OC)cc3)C(OP(=O)(O)O)C(OP(=O)(O)O)C2OP(=O)(O)O)cc1` (stereo not drawn) [Compound 43, 4,6-O-bis(3-(4-methoxyphenyl)propyl)-myo-inositol-1,2,3,5-tetrakis(phosphate) octasodium salt]: 5 to 10 µM. The figure for `O=P(O)(O)OC1C(OCCCc2cccc(C(F)(F)F)c2)C(OP(=O)(O)O)C(OP(=O)(O)O)C(OP(=O)(O)O)C1OCCCc1cccc(C(F)(F)F)c1` (stereo not drawn) [Compound 44, 4,6-O-bis(3-(3-(trifluoromethyl)phenyl)propyl)-myo-inositol-1,2,3,5-tetrakis(phosphate) octasodium salt] is > 10 µM.

For `O=C(O)CCCC(=O)NCCCOC1C(OP(=O)(O)O)C(OCCCNC(=O)CCCC(=O)O)C(OP(=O)(O)O)C(OP(=O)(O)O)C1OP(=O)(O)O` (stereo not drawn) [Compound 45, 4,6-O-bis((3-(4-carboxybutanamido)propyl))-myo-inositol-1,2,3,5-tetrakis(phosphate) decasodium salt], the EC50 is ≤ 5 µM. The figure for `O=C(NCCCOC1C(OP(=O)(O)O)C(OCCCNC(=O)Nc2ccccc2)C(OP(=O)(O)O)C(OP(=O)(O)O)C1OP(=O)(O)O)Nc1ccccc1` (stereo not drawn) [Compound 46, 4,6-O-bis(3-(3-phenylureido)propyl)-myo-inositol-1,2,3,5-tetrakis(phosphate) octasodium salt] is 5 to 10 µM; for `O=C(NCCCOC1C(OP(=O)(O)O)C(OCCCNC(=O)NC2CCCC2)C(OP(=O)(O)O)C(OP(=O)(O)O)C1OP(=O)(O)O)NC1CCCC1` (stereo not drawn) [Compound 47, 4,6-O-bis(3-(3-cyclopentylureido)propyl)-myo-inositol-1,2,3,5-tetrakis(phosphate) octasodium salt] it is ≤ 5 µM. The figure for `O=C(NCCCCCOC1C(OP(=O)(O)O)C(OCCCCCNC(=O)c2ccccc2)C(OP(=O)(O)O)C(OP(=O)(O)O)C1OP(=O)(O)O)c1ccccc1` (stereo not drawn) [Compound 48, 4,6-O-bis(5-benzamidopentyl)-myo-inositol-1,2,3,5-tetrakis(phosphate) octasodium salt] is > 10 µM. Next, `O=C(NCCCCCOC1C(OP(=O)(O)O)C(OCCCCCNC(=O)c2cccs2)C(OP(=O)(O)O)C(OP(=O)(O)O)C1OP(=O)(O)O)c1cccs1` (stereo not drawn) [Compound 49, 4,6-O-bis(5-(thiophene-2-carboxamido)pentyl)-myo-inositol-1,2,3,5-tetrakis(phosphate) octasodium salt]: 5 to 10 µM; `CCCCCOC1C(OP(O)(O)=S)C(OCCCCC)C(OP(O)(O)=S)C(OP(O)(O)=S)C1OP(O)(O)=S` (stereo not drawn) [Compound 50, 4,6-O-dipentyl-myo-inositol-1,2,3,5-tetrakis(thiophosphate) octasodium salt]: > 10 µM. In the case of `COCCCCCOC1C(OP(O)(O)=S)C(OCCCCCOC)C(OP(O)(O)=S)C(OP(O)(O)=S)C1OP(O)(O)=S` (stereo not drawn) [Compound 51, 4,6-O-bis(5-Methoxypentyl)-myo-inositol-1,2,3,5-tetrakis(thiophosphate) octasodium salt], the EC50 is > 10 µM.

`O=C(O)CCCOC1C(OP(=O)(O)O)C(OCCCC(=O)O)C(OP(=O)(O)O)C(OP(=O)(O)O)C1OP(=O)(O)O` (stereo not drawn) [Compound 52, 4,6-O-bis(3-carboxypropyl)-myo-inositol-1,2,3,5-tetrakis(phosphate) decasodium salt]: the EC50 was ≤ 5 µM. Next, `C#CCOC1C(OP(=O)(O)O)C(OCC#C)C(OP(=O)(O)O)C(OP(=O)(O)O)C1OP(=O)(O)O` (stereo not drawn) [Compound 53, 4,6-O-Dipropargyl-myo-inositol-1,2,3,5-tetrakis(phosphate) octasodium salt]: ≤ 5 µM.
